Laboratory results as given in ChEMBL document CHEMBL1158265, “Isoprenyl phenyl ethers from liverworts of the genus Trichocolea: cytotoxic activity, structural corrections, and synthesis” (J Nat Prod, 1996).

Tests used:
Candida albicans = assay: Antifungal activity against Candida albicans at 60 ug/disk; assay type: functional; conditions: read-out: IZ
[1] = Cytotoxicity against african green monkey BSC1 cells at 60 ug/disk; assay type: cell-based; conditions: chlorocebus aethiops, bsc-1
[2] = tested on: Trichophyton mentagrophytes; assay: Antifungal activity against Trichophyton mentagrophytes at 60 ug/disk; assay type: functional; conditions: read-out: IZ

SMILES | zone of inhibition at 60 µg/disc (Candida albicans) [mm] | Activity [1] [%] | zone of inhibition at 60 µg/disc [2] [mm]
COC(=O)c1ccc(OCC=C(C)C)c(OC)c1 | 1 | 50 | 2
COC(=O)c1ccc(O)c(OC)c1 [METHYL VANILLATE] | 0 | 25 | 0
